Article PMC11207022, “Enhanced Enzymatic Performance of Immobilized Pseudomonas fluorescens Lipase on ZIF-8@ZIF-67 and Its Application to the Synthesis of Neryl Acetate with Transesterification Reaction” (Molecules, 2024)

Test system: T1, Pseudomonas fluorescens lipase (PFL)
T1 construct: commercial lipase powder (Amano Enzyme Ltd., Nagoya, Japan), used without further treatment; free enzyme
Experiment: colorimetric p-nitrophenol release at […] nm; initial rates, linear regression (Lineweaver-Burk)
Format: biochemical
Settings: free enzyme; standard assay phosphate buffer pH 7.5, 40 °C, with Triton and acetone

- Km: 760 µM
SMILES: CCCC(=O)Oc1ccc([N+](=O)[O-])cc1 [p-nitrophenol butyrate]
